Drawing on patent US11964973B2 (priority 2019, dated 2024), this text covers EC50 for 33 compounds.

The first experiment deals with Human venous whole blood (IFN-γ). The experiment can be described thus: Human whole blood IFN-γ assay. Type of experiment: cell-based. The settings on record: Homo sapiens, 24 h, human whole blood, anti-CD3 plus anti-CD28, 24 hours; read-out: INFg Whole Blood Normalized Agonist EC50. As for the experimental part: Assay 10: Human Whole Blood IFN-γ Assay
Human venous whole blood (22.5 μL per well), obtained from healthy donors, was pre-treated with compounds for one hour at 37° C. in a humidified 95% air/5% CO2 incubator. The blood was stimulated with 2.5 μL anti-human CD3 and anti-CD28 mAb at a final concentration of 1 μg/mL each for 24 hours at 37° C. IFN-γ in the supernatants was measured using AlphLISA kit (Cat #AL217).
`C[C@@H]1CN(c2cc(=O)n(C)c3ccc(C#N)nc23)CC[C@H]1Oc1ccc(F)cc1` (single isomer, unassigned) [Example 129]: the EC50 came to 20 µM. As to `CC[C@@H]1CN(c2cc(=O)n(C)c3ccc(C#N)nc23)CC[C@H]1Oc1ccc(C(C)(C)CC)cc1` (single isomer, unassigned) [Example 150], the EC50 stood at 1.4 µM.

For the compound `C[C@@H]1CN(c2cc(=O)n(C)c3ccc(C#N)nc23)CC[C@H]1Oc1ccc(C(C)(C)C)cc1` [Example 88, 8-((3R,4R)-4-(4-(tert-butyl)phenoxy)-3-methylpiperidin-1-yl)-5-methyl-6-oxo-5,6-dihydro-1,5-naphthyridine-2-carbonitrile], the EC50 was determined as 0.88 µM.

Turning to `C[C@@H]1CN(c2cc(=O)n(C)c3ccc(C#N)nc23)CC[C@H]1Oc1c(F)cccc1F` [Example 125, 8-((3R,4R)-4-(2,6-difluorophenoxy)-3-methylpiperidin-1-yl)-5-methyl-6-oxo-5,6-dihydro-1,5-naphthyridine-2-carbonitrile], the EC50 stood at 20 µM.

As to `C[C@@H]1CN(c2cc(=O)n(C)c3ccc(C#N)nc23)CC[C@H]1Oc1ccc(F)cc1` [Example 128, 8-((3R,4R)-4-(4-fluorophenoxy)-3-methylpiperidin-1-yl)-5-methyl-6-oxo-5,6-dihydro-1,5-naphthyridine-2-carbonitrile], the EC50 stood at 20 µM. Consider `CC[C@@H]1CN(c2cc(=O)n(C)c3ccc(C#N)nc23)CC[C@H]1Oc1cccc(C2CC2)c1` [Example 156, 8-((3R,4R)-4-(3-cyclopropylphenoxy)-3-ethylpiperidin-1-yl)-5-methyl-6-oxo-5,6-dihydro-1,5-naphthyridine-2-carbonitrile], for which the EC50 is 1.8 µM.

Still in this experiment, the particulars now being: Homo sapiens, human whole blood IFN-γ; read-out: INFg Whole Blood.
As to `CC(C)c1cccc(O[C@H]2CCN(c3cc(=O)n(C)c4ccc(C#N)nc34)C[C@H]2C)n1` (single isomer, unassigned) [Example 215], the EC50 amounted to 2.1 µM.

As for `C[C@@H]1CN(c2cc(=O)n(C)c3ccc(C#N)nc23)CC[C@@H]1Oc1ccc(C(F)(F)F)cn1` (single isomer, unassigned) [Example 226], the EC50 came out at 2.4 µM.

`C[C@@H]1CN(c2c(C#N)c(=O)n(C)c3ccc(C#N)nc23)CC[C@@H]1Oc1ccc(C(F)(F)F)cc1` [Example 189, 5-methyl-8-((3R,4S)-3-methyl-4-(4-(trifluoromethyl)phenoxy)piperidin-1-yl)-6-oxo-5,6-dihydro-1,5-naphthyridine-2,7-dicarbonitrile]: the EC50 stood at 20 µM. `CCCc1cc(O[C@@H]2CCN(c3cc(=O)n(C)c4ccc(C#N)nc34)C[C@H]2CC)ccc1F` [Example 195, 8-((3R,4R)-3-ethyl-4-(4-fluoro-3-propylphenoxy)piperidin-1-yl)-5-methyl-6-oxo-5,6-dihydro-1,5-naphthyridine-2-carbonitrile]: the EC50 came out at 0.33 µM.

Consider `CC(C)c1ccc(O[C@H]2CCN(c3cc(=O)n(C)c4ccc(C#N)nc34)C[C@H]2C)nc1` [Example 205, 8-((3R,4S)-4-((5-isopropylpyridin-2-yl)oxy)-3-methylpiperidin-1-yl)-5-methyl-6-oxo-5,6-dihydro-1,5-naphthyridine-2-carbonitrile], for which the EC50 is 0.37 µM.

On to `C[C@@H]1CN(c2cc(=O)n(C)c3ccc(C#N)nc23)CC[C@@H]1Oc1ccc(C(F)F)cn1` [Example 208, 8-((3R,4S)-4-((5-(difluoromethyl)pyridin-2-yl)oxy)-3-methylpiperidin-1-yl)-5-methyl-6-oxo-5,6-dihydro-1,5-naphthyridine-2-carbonitrile], for which the EC50 worked out at 2.1 µM. With `CC(C)c1ccnc(O[C@H]2CCN(c3cc(=O)n(C)c4ccc(C#N)nc34)C[C@H]2C)c1` [Example 211, 8-((3R,4S)-4-((4-isopropylpyridin-2-yl)oxy)-3-methylpiperidin-1-yl)-5-methyl-6-oxo-5,6-dihydro-1,5-naphthyridine-2-carbonitrile], the EC50 came out at 3.9 µM. The same measure, in the same setting: under `CC(C)c1cccc(O[C@H]2CCN(c3cc(=O)n(C)c4ccc(C#N)nc34)C[C@H]2C)n1` [Example 214, 8-((3R,4S)-4-((6-isopropylpyridin-2-yl)oxy)-3-methylpiperidin-1-yl)-5-methyl-6-oxo-5,6-dihydro-1,5-naphthyridine-2-carbonitrile] stands 5 µM; under `C[C@@H]1CN(c2cc(=O)n(C)c3ccc(C#N)nc23)CC[C@@H]1Oc1ncccn1` [Example 217, 5-methyl-8-((3R,4S)-3-methyl-4-(pyrimidin-2-yloxy)piperidin-1-yl)-6-oxo-5,6-dihydro-1,5-naphthyridine-2-carbonitrile], 20 µM.

For `COc1ccnc(O[C@H]2CCN(c3cc(=O)n(C)c4ccc(C#N)nc34)C[C@H]2C)n1` [Example 218, 8-((3R,4S)-4-((4-methoxypyrimidin-2-yl)oxy)-3-methylpiperidin-1-yl)-5-methyl-6-oxo-5,6-dihydro-1,5-naphthyridine-2-carbonitrile], the EC50 was 20 µM. For `C[C@@H]1CN(c2cc(=O)n(C)c3ccc(C#N)nc23)CC[C@@H]1Oc1ncc(C(F)(F)F)cn1` [Example 222, 5-methyl-8-((3R,4S)-3-methyl-4-((5-(trifluoromethyl)pyrimidin-2-yl)oxy)piperidin-1-yl)-6-oxo-5,6-dihydro-1,5-naphthyridine-2-carbonitrile], the EC50 came to 3.9 µM. With `C[C@@H]1CN(c2cc(=O)n(C)c3ccc(C#N)nc23)CC[C@@H]1Oc1ncc(C2CC2)cn1` [Example 223, 8-((3R,4S)-4-((5-cyclopropylpyrimidin-2-yl)oxy)-3-methylpiperidin-1-yl)-5-methyl-6-oxo-5,6-dihydro-1,5-naphthyridine-2-carbonitrile], the EC50 amounted to 17 µM.

The experiment is the same for the next values; noted with them: Homo sapiens, read-out: INFg Whole Blood, human whole blood IFN-γ.
On to `CC[C@@H]1CN(c2cc(=O)n(C)c3ccc(C#N)nc23)CC[C@H]1Oc1cccc(C(C)(C)C)c1` [Example 196, 8-((3R,4R)-4-(3-(tert-butyl)phenoxy)-3-ethylpiperidin-1-yl)-5-methyl-6-oxo-5,6-dihydro-1,5-naphthyridine-2-carbonitrile], for which the EC50 worked out at 0.29 µM.

With `CC[C@@H]1CN(c2cc(=O)n(C)c3ccc(C#N)nc23)CC[C@@H]1Oc1ccc(OC(C)C)cn1` [Example 202, 8-((3R,4S)-3-ethyl-4-((5-isopropoxypyridin-2-yl)oxy)piperidin-1-yl)-5-methyl-6-oxo-5,6-dihydro-1,5-naphthyridine-2-carbonitrile], the EC50 came out at 2 µM.

Still in this experiment, the particulars now being: human whole blood IFN-γ; read-out: INFg Whole Blood.
As to `C[C@@H]1CN(c2cc(=O)n(C)c3ccc(C#N)nc23)CC[C@@H]1Oc1ccc(C(F)(F)F)cc1` (single isomer, unassigned) [Example 188, 5-methyl-8-(cis-3-methyl-4-(4-(trifluoromethyl)phenoxy)piperidin-1-yl)-6-oxo-5,6-dihydro-1,5-naphthyridine-2-carbonitrile (rel)], the EC50 was 6.4 µM. Consider `CC(C)c1ccnc(O[C@H]2CCN(c3cc(=O)n(C)c4ccc(C#N)nc34)C[C@H]2C)c1` (single isomer, unassigned) [Example 212], for which the EC50 was 1.9 µM. Same read-out and setting: the result for `CC(C)c1ccnc(O[C@H]2CCN(c3cc(=O)n(C)c4ccc(C#N)nc34)C[C@H]2C)c1` (single isomer, unassigned) [Example 213] reads 4.9 µM. With `C[C@@H]1CN(c2cc(=O)n(C)c3ccc(C#N)nc23)CC[C@@H]1Oc1ccc(C(F)(F)F)cn1` (single isomer, unassigned) [Example 227], the EC50 stood at 4.2 µM. Same read-out and setting: under `CC(C)Oc1ccc(OC2CCN(c3cc(=O)n(C)c4ccc(C#N)nc34)CC2(C)C)nc1` (single isomer, unassigned) [Example 233, 8-(4-((5-isopropoxypyridin-2-yl)oxy)-3,3-dimethylpiperidin-1-yl)-5-methyl-6-oxo-5,6-dihydro-1,5-naphthyridine-2-carbonitrile (rel)] stands 3.3 µM; under `CC(C)Oc1ccc(OC2CCN(c3cc(=O)n(C)c4ccc(C#N)nc34)CC2(C)C)nc1` (single isomer, unassigned) [Example 234, 8-(4-((5-isopropoxypyridin-2-yl)oxy)-3,3-dimethylpiperidin-1-yl)-5-methyl-6-oxo-5,6-dihydro-1,5-naphthyridine-2-carbonitrile (rel)], 9.3 µM.

Still in this experiment, the particulars now being: human whole blood, anti-CD3 plus anti-CD28, 24 hours; read-out: INFg Whole Blood Normalized Agonist EC50.
As for `C[C@@H]1CN(c2cc(=O)n(C)c3ccc(C#N)nc23)CC[C@H]1Oc1c(F)cccc1F` (single isomer, unassigned) [Example 127], the EC50 was determined as 20 µM. Still for that read-out and setting: under `CC[C@@H]1CN(c2cc(=O)n(C)c3ccc(C#N)nc23)CC[C@H]1Oc1ccc(C(C)C)cc1` (single isomer, unassigned) [Example 145] stands 7.8 µM; under `CC[C@@H]1CN(c2cc(=O)n(C)c3ccc(C#N)nc23)CC[C@H]1Oc1ccc(C(F)(F)F)cc1` (single isomer, unassigned) [Example 148], 12 µM; under `CC[C@@H]1CN(c2cc(=O)n(C)c3ccc(C#N)nc23)CC[C@H]1Oc1ccc(C(C)(C)CC)cc1` (single isomer, unassigned) [Example 151], 2.4 µM. For the compound `CC[C@@H]1CN(c2cc(=O)n(C)c3ccc(C#N)nc23)CC[C@H]1Oc1ccc(C(C)(C)C)cc1` (single isomer, unassigned) [Example 153], the EC50 came out at 1.7 µM. Turning to `CC[C@@H]1CN(c2cc(=O)n(C)c3ccc(C#N)nc23)CC[C@H]1Oc1ccc(C(C)(C)C)cc1` (single isomer, unassigned) [Example 154], the EC50 amounted to 11 µM. For `CC[C@@H]1CN(c2cc(=O)n(C)c3ccc(C#N)nc23)CC[C@H]1Oc1cccc(C2CC2)c1` [Example 157, 8-((3R,4R)-4-(3-cyclopropylphenoxy)-3-ethylpiperidin-1-yl)-5-methyl-6-oxo-5,6-dihydro-1,5-naphthyridine-2-carbonitrile], the EC50 came to 2.8 µM.
